From patent US12319699B2, “L-proline sulfonamide derivatives comprising pyrazolo[4,3-e]tetrazolo[4,5-b][1,2,4]triazine system, method of manufacturing thereof, uses thereof and pharmaceutical composition comprising the same” (UNIWERSYTET MEDYCZNY W BIALYMSTOKU, priority 2018, dated 2025)

What was measured:
[1] = system: AGS human gastric cancer cells; assay: DNA biosynthesis, [3H]-thymidine incorporation; format: cell-based; conditions: 24-hour incubation
Protocol: AGS human gastric cancer cells (ATCC CRL-1739, Manassas, VA, USA) were cultured in DMEM (Dulbecco's Modified Eagle's Medium) supplemented with 10% fetal bovine serum (FBS), 2 mM glutamine, 50 U/ml penicillin, 50 μg/ml streptomycin at 37° C., in atmosphere containing 5% CO2. Subsequently, the cells were counted in a hemocytometer and transferred in the amount of […] cells per well in 1 ml of culture medium from Costar flasks (Sigma, USA) to Nunc 6-well plates (Wiesbaden, Germany). The cells were transferred using calcium-free phosphate buffer with the addition of 0.05% trypsin and 0.02% EDTA. […] Within the subsequent 24 hours the cells covered at least 80% of the surface of each plate well. The cells prepared in this manner were incubated with the examined compounds for 24 hours and then used for further experiments.
The effect of the examined compounds according to the invention on the process of DNA biosynthesis was assessed by measuring incorporation of [^3H]-thymidine into DNA of the examined cells. […] After 5 minutes, the cell lysate obtained was transferred to scintillation vials containing 2 ml of scintillation fluid and radioactivity was measured. […] The values from the examined samples were expressed as percentage of the control value. The significance level p was determined by the nonparametric Mann-Whitney U test by means of SigmaStat software. […]

[2] = system: DLD-1 colorectal cancer cells; assay: Induction of apoptosis, Annexin V-FITC / propidium iodide flow cytometry; format: cell-based, human; conditions: 24 hours
Protocol: DLD-1 human colorectal cancer cells (ATCC CCL-221, Manassas, VA, USA) were grown in DMEM (Dulbecco's Modified Eagle's Medium) supplemented with 10% fetal bovine serum (FBS), 2 mM glutamine, 50 U/ml penicillin, 50 μg/ml streptomycin at 37° C., in atmosphere containing 5% of CO2. Then the cells were counted in a hemocytometer and transferred in the amount of 1×10^6 cells per well in 1 ml of culture medium from Costar flasks (Sigma, USA) to Nunc 6-well plates (Wiesbaden, Germany). The cells were transferred using calcium-free phosphate buffer with the addition of 0.05% trypsin and 0.02% EDTA. […] Within the subsequent 24 hours the cells covered at least 80% of the surface of each plate well. The cells prepared in this manner were incubated with the examined compounds for 24 hours and then used for further experiments.
Induction of apoptosis was examined by a method using fluorescein isothiocyanate-labelled Annexin V (Annexin V-FITC) which forms complexes with phosphatidylserine in the presence of calcium ions. The complexes were determined using FITC Annexin V Apoptosis Detection Kit II (BD Biosciences, USA) and a flow cytometer BD FACSCanto H (BD Biosciences Systems, San Jose, CA, USA). The analysis of results was carried out by means of FACSDiva software (BD Biosciences Systems, San Jose, CA USA).
DLD-1 and HT-29 cells were incubated for 24 hours in an incubator at 37° C. in a 5% CO2 atmosphere with medium containing the examined compounds according to the invention at specific concentrations. Both examined compounds were used at a concentration of 1.5 μM and 3.0 μM. After the incubation period, the medium was removed, a binding buffer included in the kit was added and the cells were suspended in the buffer. In order to calibrate the apparatus two control samples, i.e. a positive one and a negative one, were prepared. The positive control constituted a reference of control cells in which apoptosis was induced by the addition of 3% formaldehyde. Three control samples were prepared. The first sample contained control cells and propidium iodide, the second sample contained control cells and Annexin V-FITC and the third sample contained control cells, propidium iodide and Annexin V-FITC. After adding 2 μl of 3% formaldehyde the cells were placed in a refrigerator for 10 minutes. Cells that were not treated with any agent constituted the negative control. The cells from the control samples and the cells treated by the examined compounds according to the invention (1×10^6 cells/ml) suspended in the buffer included in the kit were subjected to further examination. 200 μl suspension were taken from each examined sample and were transferred to test tubes. 3 μl Annexin V-FITC and 5 μl propidium iodide (PI) were added to each sample in room temperature and the samples were placed in a dark place for 15 minutes. Cell suspension prepared in this manner was analyzed within one hour in the flow cytometer BD FACSCanto II (BD Biosciences Systems, San Jose, CA, USA) by means of FACSDiva software. The results of the above experiment can be described as follows: live cells (double negative sample—lack of reaction with Annexin V and P), early apoptosis (Annexin V positive and PI negative sample), late apoptosis (Annexin V positive and PI positive sample) and necrosis (Annexin V negative and PI positive sample)

[3] = DLD-1, 3.0 μM, listed as compound of Formula 3

Row | Structure (SMILES) | IC50 [1] | Early apoptosis ([2]; DLD-1, 1.5 μM) | Late apoptosis ([2]; DLD-1, 1.5 μM) | Live cells ([2]; DLD-1, 1.5 μM) | Necrosis ([2]; DLD-1, 1.5 μM) | early and late apoptotic cells (total) ([2]; DLD-1, 1.5 μM) | Necrosis ([2]; DLD-1, 1.5 μM, listed as compound of Formula 2) | Early apoptosis ([2]; DLD-1, 3.0 μM) | Late apoptosis ([2]; DLD-1, 3.0 μM) | Live cells ([2]; DLD-1, 3.0 μM) | Necrosis ([2]; DLD-1, 3.0 μM) | early and late apoptotic cells (total) ([2]; DLD-1, 3.0 μM) | Necrosis ([2]; DLD-1, 3.0 μM, listed as compound of Formula 2) | Necrosis ([2]; DLD-1, 1.5 μM, listed as compound of Formula 3) | Early apoptosis [2, 3] | Late apoptosis [2, 3] | Necrosis [2, 3]
1 | COC(=O)C1CCCN1S(=O)(=O)c1ccc(-n2nc(C)c3nc4nnnn4nc32)cc1 (stereo not drawn) [Compound of Formula 2, Methyl 1-[4-(7-methyl-5H-pyrazol[4,3-e]tetrazolo[4,5-b][1,2,4]triazyn-5-yl)phenylsulfonyl]pyrrolidine-2-carboxylate] | 550 ± 10 nM | 13.1% | 9.6% | 74.8% | 2.5% | 22.7% | 2.5% | 16.4% | 30.0% | 47.1% | 6.6% | 46.4% | 6.6% | – | – | – | –
2 | COC(=O)C1CC(O)CN1S(=O)(=O)c1ccc(-n2nc(C)c3nc4nnnn4nc32)cc1 (stereo not drawn) [Compound of Formula 3, Methyl 4-hydroxy-1-[4-(7-methyl-5H-pyrazolo[4,3-e]tetrazolo[4,5-b][1,2,4]triazyn-5-yl)phenylsulfonyl]pyrrolidine-2-carboxylate] | 1050 ± 10 nM | 17.0% | 32.1% | 43.9% | 7.0% | 49.1% | – | 1.7% | 80.8% | 11.0% | 6.5% | – | – | 7.0% | 1.7% | 80.8% | 6.5%
